Values quoted from earlier work, collected in patent publication US20120070594A1, “HYDROGENATED BISPHENOL-A-BASED POLYMERS AS SUBSTITUTES FOR BISPHENOL-A-BASED POLYMERS” (priority 2010, published 2012).

Assays:
[1] = tested on: rat

SMILES	pKa	LD50 (rat) [1] [mg per kg]
CC(C)(c1ccc(O)cc1)c1ccc(O)cc1 [BPA, 4,4′-(Propane-2,2-diyl)diphenol, reference compound]	9.6	
CC(C)(C1CCC(O)CC1)C1CCC(O)CC1 (stereo not drawn) [HBPA, 4-[2-(4-hydroxycyclohexyl)propan-2-yl]cyclohexan-1-ol]	17	5660
